# Where a name gives a salt, the structure may show the parent alone.
# Experiments:
# [1] = test system: HCV GT1a replicon; test: microbe, parasite or virus in culture; type: cell-based; settings: Hepatitis C virus, Huh-7, 72 h, stable replicon in Huh7 cells, 3 days, read-out: Individual EC50
# Description: (§1) Huh7 cells were maintained in DMEM supplemented with 10% FBS, 1% NEAA, 1% L-Glutamine and 1% Penicillin-Streptomycin. The stable HCV GT1a and 1b replicon cells were generated by transfection of Huh7 cells with in vitro transcribed HCV replicon RNA transcripts from replicon DNA constructs and were selected with 250 μg/ml of G418. The GT1b/3a NS5B chimeric replicons were constructed with the GT1b replicon as a backbone. GT1b/3a NS5B replicon RNAs were in vitro transcribed using the replicon plasmid DNAs and used to transiently transfect Huh7 cells by electroporation.
# (§2) The final concentration of DMSO in the cell culture medium was 0.5%. Compounds were individually tested for their inhibitory activity in stably-transfected GT1a and GT1b replicons and in transiently-transfected GT1b/3a NS5B chimeric replicons in duplicate at 9 concentrations with a series of 4-fold dilutions starting at 10,000 nM. Replicon cells were seeded (8,000 cells/well for GT1a and 1b; 10,000 cells/well for GT1b/3a NS5B) in 96-well plates containing serially diluted compounds and cultured at 37° C. and 5% CO2 for 3 days. CellTiter-Fluor was used to detect the fluorescence signal and the raw data (RFU) was used for calculating cell viability using the equation below: […]
# (§3) where CPD is a signal from a well containing a test compound, ZPE is the average of signals from DMSO control wells and HPE is the average of signals from medium control wells.
# (§4) The data were analyzed using CompuSyn software (ComboSyn, Inc., Paramus, N.J.) to obtain the concentrations of the individual compounds required to achieve 50% cytotoxicity (CC50) and 50% (EC50) and 90% (EC90) antiviral efficacy. […]
# (§5) In Example 6, Huh7 cells were transiently transfected with replicon RNA by electroporation and seeded at a density of 10,000 cells/well in 96-well plates. HCV GT1a and GT1b replicons stable cells were seeded at a density of 8,000 cells/well in 96-well plates. […]
# [2] = test system: GT1b_3a-NS5B chimeric HCV replicon; test: microbe, parasite or virus in culture; type: cell-based; settings: Hepatitis C virus, Huh-7, 72 h, read-out: Individual EC50
# Description: as §1, §2, §3, §4, §5
# [3] = test system: HCV GT1b replicon; test: microbe, parasite or virus in culture; type: cell-based; settings: Hepatitis C virus, Huh-7, 72 h, stable replicon in Huh7 cells, 3 days, read-out: Individual EC50
# Description: as §1, §2, §3, §4, §5
# [4] = test system: HCV GT1; settings: non-cirrhotic patients, 600 mg QD, seven days; cited from earlier work
# [5] = test system: HCV GT3; settings: non-cirrhotic patients, 600 mg QD, seven days; cited from earlier work
# [6] = test system: HCV GT1 or HCV GT3; settings: CPA cirrhosis, QD for seven days; cited from earlier work
# [7] = Stability of Compound 2-A in stability chambers; type: physicochemical
# Description: The stability of Compound 2-A was measured under three different conditions: 1) open container; 2) PE/ALU bag where the PE bag is closed with clips and the ALU bag is sealed by thermos-sealing; and 3) PE/ALU bag with desiccant where the PE bag is closed with plastic clip, the ALU bag is sealed by the thermos-sealing, and 10 g of silica gel is placed between the bags. The open container conditions were conducted with two different batches of Compound 2-A. The results of the stability studies are shown in Table 5A, Table 5B, Table 6, and Table 7.
# [8] = Hygroscopicity in climatic cabinet; type: physicochemical
# Description: Compound 2-A was characterized by ^1HNMR, ^13CNMR, FI-IR, and mass spectrum in addition to XRPD (FIG. 1A) and differential scanning calorimetry (DSC) (FIG. 1B). The hygroscopicity was measured by placing a sample in a climatic cabinet set at 25±1° C./80±2% RH for 24 hours. The water content was increased from 3.3% to 9.4%.
# [9] = 25° C./60% RH and 40° C./75% RH
# [10] = Batch No. 1, open container, 25° C./60% RH, 7 days
# [11] = Batch No. 1, open container, 25° C./60% RH, 14 days
# [12] = Batch No. 1, open container, 25° C./60% RH, 28 days
# [13] = Batch No. 1, open container, 30° C./65% RH, 7 days
# [14] = Batch No. 1, open container, 30° C./65% RH, 14 days
# [15] = Batch No. 1, open container, 30° C./65% RH, 28 days
# [16] = Batch No. 1, open container, 40° C./75% RH, 7 days
# [17] = Batch No. 1, open container, 40° C./75% RH, 14 days
# [18] = Batch No. 1, open container, 40° C./75% RH, 28 days
# [19] = Batch No. 1, open container, Initial
# [20] = Batch No. 2, PE/ALU bag, 25° C./60% RH, 7 days
# [21] = Batch No. 2, PE/ALU bag, 25° C./60% RH, 16 days
# [22] = Batch No. 2, PE/ALU bag, 40° C./75% RH, 7 days
# [23] = Batch No. 2, PE/ALU bag, 40° C./75% RH, 16 days
# [24] = Batch No. 2, PE/ALU bag, Initial
# [25] = Batch No. 2, PE/ALU with desiccant, 25° C./60% RH, 7 days
# [26] = Batch No. 2, PE/ALU with desiccant, 25° C./60% RH, 16 days
# [27] = Batch No. 2, PE/ALU with desiccant, 40° C./75% RH, 7 days
# [28] = Batch No. 2, PE/ALU with desiccant, 40° C./75% RH, 16 days
# [29] = Batch No. 2, PE/ALU with desiccant, Initial
# [30] = Batch No. 2, open container, 25° C./60% RH, 7 days
# [31] = Batch No. 2, open container, 25° C./60% RH, 16 days
# [32] = Batch No. 2, open container, 30° C./65% RH, 7 days
# [33] = Batch No. 2, open container, 30° C./65% RH, 16 days
# [34] = Batch No. 2, open container, 40° C./75% RH, 7 days
# [35] = Batch No. 2, open container, 40° C./75% RH, 16 days
# [36] = Batch No. 2, open container, Initial
structure (smiles),measurement,setting,value
"CNc1nc(N)nc2c1ncn2[C@@H]1O[C@H](CO[P@@](=O)(N[C@@H](C)C(=O)OC(C)C)Oc2ccccc2)[C@@H](O)[C@@]1(C)F [Compound 1-A, hemi-sulfate salt of isopropyl((S)-(((2R,3R,4R,5R)-5-(2-amino-6-(methylamino)-9H-purin-9-yl)-4-fluoro-3-hydroxy-4-methyltetrahydrofuran-2-yl)methoxy)(phenoxy)phosphoryl)-L-alaninate]",EC50,[1],2.83 nM
same,EC50,[2],1.68 nM
same,EC50,[3],2.69 nM
same,mean maximum HCV RNA reduction,[4],4.4 log10 IU/mL
same,mean maximum HCV RNA reduction,[5],4.6 log10 IU/mL
same,mean maximum HCV RNA reduction,[6],4.4 log10 IU/mL
"COC(=O)N[C@H](C(=O)N1CCC[C@H]1c1nc(-c2ccc(-c3ccc(-c4c[nH]c([C@@H]5CCCN5C(=O)[C@@H](NC(=O)OC)C(C)C)n4)c4c3OCO4)cc2)c[nH]1)C(C)C [Compound 2, methyl N-[(2S)-1-[(2S)-2-[5-[4-[7-[2-[(2S)-1-[(2 S)-2-(methoxycarbonylamino)-3-methylbutanoyl]pyrrolidin-2-yl]-1H-imidazol-5-yl]-1,3-benzodioxol-4-yl]phenyl]-1H-imidazol-2-yl]pyrrolidin-1-yl]-3-methyl-1-oxobutan-2-yl]carbamate]",EC50,[1],0.03 nM
same,EC50,[2],0.0029 nM
same,EC50,[3],0.014 nM
COC(=O)N[C@H](C(=O)N1CCC[C@H]1c1nc(-c2ccc(-c3ccc(-c4c[nH]c([C@@H]5CCCN5C(=O)[C@@H](NC(=O)OC)C(C)C)n4)c4c3OCO4)cc2)c[nH]1)C(C)C [Compound 2-A],purity change,[7]; [9],not changed
same,water content change,[7]; [9],slowly increased
same,Appearance,[7]; [10],Pale-yellow solid
same,Purity (HPLC),[7]; [10],98.45%
same,Water (KF),[7]; [10],6.14%
same,XRPD,[7]; [10],Consistent
same,Appearance,[7]; [11],Pale-yellow solid
same,Purity (HPLC),[7]; [11],98.61%
same,Water (KF),[7]; [11],6.28%
same,Appearance,[7]; [12],Pale-yellow solid
same,Purity (HPLC),[7]; [12],98.58%
same,Water (KF),[7]; [12],5.95%
same,Appearance,[7]; [13],Pale-yellow solid
same,Purity (HPLC),[7]; [13],98.40%
same,Water (KF),[7]; [13],6.73%
same,XRPD,[7]; [13],Consistent
same,Appearance,[7]; [14],Pale-yellow solid
same,Purity (HPLC),[7]; [14],98.47%
same,Water (KF),[7]; [14],6.80%
same,Appearance,[7]; [15],Pale-yellow solid
same,Purity (HPLC),[7]; [15],98.59%
same,Water (KF),[7]; [15],6.49%
same,Appearance,[7]; [16],Pale-yellow solid
same,Purity (HPLC),[7]; [16],98.45%
same,Water (KF),[7]; [16],7.13%
same,XRPD,[7]; [16],Consistent
same,Appearance,[7]; [17],Pale-yellow solid
same,Purity (HPLC),[7]; [17],98.51%
same,Water (KF),[7]; [17],7.67%
same,Appearance,[7]; [18],Pale-yellow solid
same,Purity (HPLC),[7]; [18],98.53%
same,Water (KF),[7]; [18],6.96%
same,Appearance,[7]; [19],Pale-yellow solid
same,Purity (HPLC),[7]; [19],98.39%
same,Water (KF),[7]; [19],3.11%
same,XRPD,[7]; [19],Crystalline
same,Appearance,[7]; [20],White powder
same,Purity (HPLC),[7]; [20],99.36%
same,Water (KF),[7]; [20],5.18%
same,Appearance,[7]; [21],White powder
same,Purity (HPLC),[7]; [21],99.41%
same,Water (KF),[7]; [21],5.56%
same,Appearance,[7]; [22],White powder
same,Purity (HPLC),[7]; [22],99.37%
same,Water (KF),[7]; [22],5.42%
same,Appearance,[7]; [23],White powder
same,Purity (HPLC),[7]; [23],99.42%
same,Water (KF),[7]; [23],5.91%
same,Appearance,[7]; [24],White powder
same,Purity (HPLC),[7]; [24],99.39%
same,Water (KF),[7]; [24],4.48%
same,Appearance,[7]; [25],White powder
same,Purity (HPLC),[7]; [25],99.38%
same,Water (KF),[7]; [25],5.46%
same,Appearance,[7]; [26],White powder
same,Purity (HPLC),[7]; [26],99.41%
same,Water (KF),[7]; [26],5.83%
same,Appearance,[7]; [27],White powder
same,Purity (HPLC),[7]; [27],99.37%
same,Water (KF),[7]; [27],5.51%
same,Appearance,[7]; [28],White powder
same,Purity (HPLC),[7]; [28],99.42%
same,Water (KF),[7]; [28],6.90%
same,Appearance,[7]; [29],White powder
same,Purity (HPLC),[7]; [29],99.39%
same,Water (KF),[7]; [29],4.48%
same,Appearance,[7]; [30],White powder
same,Purity (HPLC),[7]; [30],99.37%
same,Water (KF),[7]; [30],6.01%
same,Appearance,[7]; [31],White powder
same,Purity (HPLC),[7]; [31],99.41%
same,Water (KF),[7]; [31],7.69%
same,Appearance,[7]; [32],White powder
same,Purity (HPLC),[7]; [32],99.38%
same,Water (KF),[7]; [32],7.50%
same,Appearance,[7]; [33],White powder
same,Purity (HPLC),[7]; [33],99.41%
same,Water (KF),[7]; [33],6.98%
same,Appearance,[7]; [34],White powder
same,Purity (HPLC),[7]; [34],99.38%
same,Water (KF),[7]; [34],7.96%
same,Appearance,[7]; [35],White powder
same,Purity (HPLC),[7]; [35],99.42%
same,Water (KF),[7]; [35],7.03%
same,Appearance,[7]; [36],White powder
same,Purity (HPLC),[7]; [36],99.39%
same,Water (KF),[7]; [36],4.48%
same,water content,[8]; after 24 hours at 25±1° C./80±2% RH,9.4%
same,water content,[8]; before storage,3.3%

# Reference: patent publication US20200179415A1, “HIGHLY ACTIVE DRUG COMBINATION FOR TREATMENT OF HEPATITIS C VIRUS” (Atea Pharmaceuticals, Inc., priority 2018, published 2020)
